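These data come from cells grown in 96-well plates and exposed to compound for 48 hours at five concentrations. GI50 is the concentration that inhibits growth by half.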 Active and inactive are the calls of the source. Cut-off read from the data, not from the text of the source: active = GI50 up to about 1.1 µM and inactive = higher.
Experiments:
Experiment in all cases: NCI anticancer screen, dose series, 48 h
NCI-H460 = tested on: NCI-H460
OVCAR-5 = tested on: OVCAR-5
A549 = tested on: A549
Malme-3M = tested on: Malme-3M
PC-3 = tested on: PC-3
HT-29 = tested on: HT-29
LOX IMVI = tested on: LOX IMVI
COLO 205 = tested on: COLO 205
RXF 393 = tested on: RXF 393
EKVX = tested on: EKVX
M14 = tested on: M14
OVCAR-4 = tested on: OVCAR-4
UACC-62 = tested on: UACC-62
KM12 = tested on: KM12
786-0 = tested on: 786-0
HCC 2998 = tested on: HCC 2998
K562 = tested on: K562
HCT-116 = tested on: HCT-116
T47D = tested on: T47D

SMILES | GI50 (NCI-H460) | GI50 (OVCAR-5) | GI50 (A549) | GI50 (Malme-3M) | GI50 (PC-3) | GI50 (HT-29) | GI50 (LOX IMVI) | GI50 (COLO 205) | GI50 (RXF 393) | GI50 (EKVX) | GI50 (M14) | GI50 (OVCAR-4) | GI50 (UACC-62) | GI50 (KM12) | GI50 (786-0) | GI50 (HCC 2998) | GI50 (K562) | GI50 (HCT-116) | GI50 (T47D)
O=c1[nH]c(=O)c2ncn(-c3ccc([N+](=O)[O-])cn3)c2[nH]1 | > 100 µM (inactive) | > 100 µM (inactive) | > 100 µM (inactive) | 2.79 µM (inactive) | > 100 µM (inactive) | > 100 µM (inactive) | > 100 µM (inactive) | > 100 µM (inactive) | > 100 µM (inactive) | > 100 µM (inactive) | > 100 µM (inactive) | > 100 µM (inactive) | 74.1 µM (inactive) | > 100 µM (inactive) | > 100 µM (inactive) | > 100 µM (inactive) | > 100 µM (inactive) | > 100 µM (inactive) | > 100 µM (inactive)
CC(C)CC(NC(=O)C(CI)Cc1ccccc1)C(=O)Nc1ccccc1 (centres undefined) | > 100 µM (inactive) | > 100 µM (inactive) | > 100 µM (inactive) | > 100 µM (inactive) | > 100 µM (inactive) | – | > 100 µM (inactive) | > 100 µM (inactive) | > 100 µM (inactive) | > 100 µM (inactive) | > 100 µM (inactive) | 50 µM (inactive) | > 100 µM (inactive) | > 100 µM (inactive) | > 100 µM (inactive) | > 100 µM (inactive) | > 100 µM (inactive) | > 100 µM (inactive) | –
CC(C)(C)c1cc2c(O)c(c1)COCc1cc(C(C)(C)C)cc(c1O)COCc1cc(C(C)(C)C)cc(c1O)COC2 | > 100 µM (inactive) | > 100 µM (inactive) | > 100 µM (inactive) | – | > 100 µM (inactive) | – | 29.4 µM (inactive) | > 100 µM (inactive) | 32.4 µM (inactive) | > 100 µM (inactive) | 88.5 µM (inactive) | > 100 µM (inactive) | > 100 µM (inactive) | 64.6 µM (inactive) | 19.1 µM (inactive) | > 100 µM (inactive) | > 100 µM (inactive) | 97.3 µM (inactive) | > 100 µM (inactive)
CCOc1ccccc1NC(=O)C(=O)CC(=O)c1sc(Nc2nnc(-c3ccc(Cl)c(Cl)c3)o2)nc1C | 51.8 µM (inactive) | > 100 µM (inactive) | > 100 µM (inactive) | > 100 µM (inactive) | – | > 100 µM (inactive) | 31.8 µM (inactive) | > 100 µM (inactive) | > 100 µM (inactive) | > 100 µM (inactive) | > 100 µM (inactive) | > 100 µM (inactive) | > 100 µM (inactive) | > 100 µM (inactive) | > 100 µM (inactive) | > 100 µM (inactive) | > 100 µM (inactive) | > 100 µM (inactive) | –
COc1cc(C2SCCCCCCCCCCSC(c3ccc(O)c(OC)c3)SCCCCCCCCCCS2)ccc1O (centres undefined) | – | > 100 µM (inactive) | > 100 µM (inactive) | 58.1 µM (inactive) | > 100 µM (inactive) | > 100 µM (inactive) | > 100 µM (inactive) | > 100 µM (inactive) | > 100 µM (inactive) | > 100 µM (inactive) | > 100 µM (inactive) | > 100 µM (inactive) | > 100 µM (inactive) | > 100 µM (inactive) | > 100 µM (inactive) | – | > 100 µM (inactive) | > 100 µM (inactive) | > 100 µM (inactive)
CC(C)(C)c1ccc2c(c1)S(=O)(=O)Nc1ccccc1NS(=O)(=O)c1cc(C(C)(C)C)ccc1OCCOCCOCCO2 | > 100 µM (inactive) | > 100 µM (inactive) | > 100 µM (inactive) | 33.5 µM (inactive) | – | > 100 µM (inactive) | > 100 µM (inactive) | > 100 µM (inactive) | 45.5 µM (inactive) | 71.8 µM (inactive) | > 100 µM (inactive) | 20.9 µM (inactive) | 64.6 µM (inactive) | > 100 µM (inactive) | > 100 µM (inactive) | > 100 µM (inactive) | > 100 µM (inactive) | > 100 µM (inactive) | –
COc1ccc2c(c1)CC[C@@H]1[C@@H]2CC[C@]2(C)C(=O)/C(=C/c3ccncc3)C[C@@H]12 | 27.8 µM (inactive) | 48.9 µM (inactive) | 30.8 µM (inactive) | 25.8 µM (inactive) | 29.3 µM (inactive) | 33.1 µM (inactive) | 37.8 µM (inactive) | 25.3 µM (inactive) | 18.2 µM (inactive) | 53.6 µM (inactive) | 31.7 µM (inactive) | 48.2 µM (inactive) | 31.6 µM (inactive) | 27.2 µM (inactive) | 32.3 µM (inactive) | 27.4 µM (inactive) | > 100 µM (inactive) | 28.2 µM (inactive) | 33.3 µM (inactive)
CCCCCCCCCCCC(=O)OCCOCCOCCOCCOCCOCc1ccc(OC)cc1 | > 100 µM (inactive) | > 100 µM (inactive) | > 100 µM (inactive) | > 100 µM (inactive) | – | > 100 µM (inactive) | > 100 µM (inactive) | > 100 µM (inactive) | > 100 µM (inactive) | > 100 µM (inactive) | > 100 µM (inactive) | > 100 µM (inactive) | > 100 µM (inactive) | > 100 µM (inactive) | > 100 µM (inactive) | > 100 µM (inactive) | > 100 µM (inactive) | > 100 µM (inactive) | –
CCCCCCC(=O)C/C(CCC(=O)N(Cc1ccccc1)Cc1ccccc1)=N\NC(N)=O | > 100 µM (inactive) | > 100 µM (inactive) | > 100 µM (inactive) | > 100 µM (inactive) | – | > 100 µM (inactive) | > 100 µM (inactive) | > 100 µM (inactive) | > 100 µM (inactive) | > 100 µM (inactive) | > 100 µM (inactive) | > 100 µM (inactive) | > 100 µM (inactive) | > 100 µM (inactive) | > 100 µM (inactive) | > 100 µM (inactive) | > 100 µM (inactive) | > 100 µM (inactive) | –
CC(C)C[C@H](NC(=O)[C@@H](N)Cc1cccc2ccccc12)B(O)O | 0.0695 µM (active) | 0.0272 µM (active) | 0.0766 µM (active) | 0.0224 µM (active) | 0.0667 µM (active) | < 0.0178 µM (active) | < 0.0179 µM (active) | 0.0417 µM (active) | < 0.017 µM (active) | – | – | 0.232 µM (active) | 0.0482 µM (active) | 0.0281 µM (active) | < 0.0216 µM (active) | 0.173 µM (active) | – | < 0.0165 µM (active) | 0.0168 µM (active)
COc1ccc(NC(=O)/C(O)=C/C(=O)c2ccccc2)cc1 | – | – | > 10 µM (inactive) | > 10 µM (inactive) | > 10 µM (inactive) | > 10 µM (inactive) | 1.96 µM (inactive) | > 10 µM (inactive) | > 10 µM (inactive) | > 10 µM (inactive) | > 10 µM (inactive) | > 10 µM (inactive) | > 10 µM (inactive) | > 10 µM (inactive) | > 10 µM (inactive) | > 10 µM (inactive) | > 10 µM (inactive) | – | > 10 µM (inactive)
